Laboratory results from patent publication US11160886B2, “Method for labeling of sensitive and thermosensitive targeting biomolecules with technetium based compounds” (BRACCO IMAGING SPA, priority 2016, dated 2021).

Tests used:
avidin = avidin (Gallus gallus, UniProt P02701); experiment: Avidin binding; details: 1 and 24 h at 37° C.
Protocol: Avidin Binding. The preliminary evaluation of the binding characteristics of the two separate isomers of complex 11 to avidin was assessed according to the previously reported methods and compared with those of the corresponding already published (Bolzati, C.; Caporale, A.; Agostini, S.; Carta, D.; Cavazza-Ceccato, M.; Refosco, F.; Tisato, F.; Schievano, E.; Bandoli, G. Avidin-biotin system: a small library of cysteine biotinylated derivatives designed for the [^99mTc(N)(PNp)]^2+ metal fragment. Nucl. Med. Biol (2006), 34, 511-522).
The percentage of radiolabeled biotin bound, evaluated after 1 and 24 h of incubation along the saturation curves, is reported in FIG. 9.

[1] = Isomeric conversion over 24 h at 37° C.; type: physicochemical
Protocol: Before the experiments for both complex 11 and complex 9, the two isomers were isolated by HPLC and their isomeric conversion was assessed over 24 h at 37° C.
In addition, a faster b vs a change was noticed. Therefore, for the radiolabeled peptide the mixture of the two isomeric forms in ratio 70/30 was directly utilized for receptor affinity studies.

[2] = Challenge reactions (transchelation) with excess Cys, GSH or EDTA, RCP by HPLC; type: physicochemical; details: 10 mM
Protocol: The transchelation studies were performed for some compounds monitoring by HPLC the radiochemical purity (RCP) of the complexes in presence of an excess of exchanging ligands over the time. The experiments were performed in triplicate.
Challenge experiments were carried out on the purified [^99mTc(N)(PNP3OH)]-labeled small size compounds (complex 1, complex 2, complex 9 and complex 10) using an excess of glutathione (GSH) or Cys. An aliquot (50 μl) of an aqueous stock solution of cysteine hydrochloride (10 mM; 1 mM) was added to a propylene test tube containing PB (250 μl, 0.2 M; pH 7.4), water (100 μl) and the selected [^99mTc(N)(PNP3OH)]-compound (100 μl). The mixture was vortexed and incubated at 37° C. for 24 h. A control reaction containing an equal volume of water, instead of cysteine hydrochloride, was studied in parallel. At 30 min, 1, 3 and 24 h, aliquots of the reaction mixture were withdrawn and analyzed by HPLC chromatography. A similar procedure was applied using GSH (50 μl, 10 mM) as challenge ligand.
For [^99mTc(N)(PNP3OH)(Cys-Gly-Lys-Gly-ApoMb)]^+ (“Cys-Gly-Lys-Gly” disclosed as SEQ ID NO: 1) additional experiments were conducted using EDTA (50 μl, 10 mM) as exchanging ligand.

avidin, sequence (P02701 25-152, species assumed): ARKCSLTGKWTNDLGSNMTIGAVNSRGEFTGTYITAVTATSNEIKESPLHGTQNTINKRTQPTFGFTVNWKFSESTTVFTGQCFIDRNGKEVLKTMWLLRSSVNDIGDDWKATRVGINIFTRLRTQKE

Substance | Recognition by molecular target (avidin binding, FIG. 9) (avidin) | Isomeric conversion a vs b [1] | Stability in challenge with excess of Cys, GSH and EDTA [2]
[^99mTc(N)(PNP3OH)(Biot-Abu-Cys)] [Complex 11] | recognized by the corresponding molecular target | No variation of a vs b and vice versa | 
[^99mTc(N)(PNP3OH)(Cys-Gly-Lys-Gly-ApoMb)]^+ |  |  | do not affect the stability
